Source: patent US4769389A, “Oxygenated-alkyl derivatives of glutamic and aspartic acids with antagonistic activity to bio-active polypeptides and a method for their preparation” (priority 1985, dated 1988)
Converted amounts (≈) assume the structure as drawn. Like-named read-outs stand apart in the source and are kept apart here.

Key:
guinea pig gall bladders = assay: Anti-CCK-8 activity on guinea-pig gallbladders in situ (in vivo); conditions: Cavia porcellus, iv; CCK-8 10 ng/kg i.v.; compound i.v.; read-out: ID50, anti-CCK-8 activity in situ
Experimental: In order to confirm the evidence of the studies in vitro, several of the more interesting compounds were tested in vivo with the use of guinea-pig gallbladders in situ.
The method used was that described by Ljungberg (Svensk. Farm. Tidskr. 69, 351-354, 1964).
Guinea-pigs having a weight of about 400 g anaesthetised with urethane were used; the substances being tested were administered intravenously (i.v.) into the jugular vein.
The responses of the gallbladder to the substances being tested were detected by means of a force transducer and recorded by means of a microdynamometer. 10 ng/kg of CCK 8 were chosen as the optimum contracting dose. The antagonistic compounds tested were administered in increasing doses so as to enable the calculation of an ID50 value, that is the dose (in mg/kg i.v.) having a 50% inhibiting effect against contractions induced by 10 ng/kg i.v. of CCK-8.

in vivo = conditions: mouse, iv
digestive tract = assay: Antispastic activity, vegetable carbon test (speed of transit through stomach and intestine) in mice; assay type: in vivo; conditions: Mus musculus, ip, read-out: A[…] ED50 (dose which reduces the intestinal transit time of the carbon by 50%), intraperitoneally
Text: The anti-spastic activity which the present compounds exert on the whole of the digestive tract is also considerable. Measured in mice with the vegetable carbon test (speed of transit through the stomach and intestine) this activity is illustrated in the following table: […]

guinea-pig gallbladder = assay: Anti-CCK activity on guinea-pig gallbladders in vitro (contraction by CCK-8); conditions: for IC50: Cavia porcellus, CCK-8 10 ng/ml, in vitro
Experimental: ANTI-CCK ACTIVITY ON GUINEA-PIG GALLBLADDERS IN VITRO A longitudinal strip of guinea-pig gallbladder is placed in a bath for isolated organs in Krebs at a temperature of 32° C. and oxygenated continuously with an oxygen-CO2 mixture (95-[…]). The isometric contractions were detected by means of a force transducer and recorded. […] The results obtained are shown in Table 3 which gives the compounds tested and the IC50 values found which were calculated by the method of regression in a test of at least three experiments for each compound studied.

[1] = tested on: pancreatitis in mice induced experimentally by cerulein; assay: Pancreatitis induced by cerulein in mice; assay type: in vivo; conditions: for ED50: Mus musculus, ip, cerulein, mice
Experimental: Adult male mice received six injections of cerulein (Takus) (50 mcg/kg) each hour for six hours.
The compound was administered 30 minutes before each administration of cerulein. Nine hours after the beginning of the treatment, the blood was taken from the rectro-orbitory plexus after anaesthesia with ether, the animals were killed and the pancreas removed and weighed.

colon of rabbits = assay: Antispastic activity in the colon of rabbits stimulated with CCK-8; assay type: in vivo, rabbit; parameters: Antispastic activity in colon, EXPERIMENT 1 / Antispastic activity in colon, EXPERIMENT 2: unit not given here; conditions: CCK 100 ng/kg
Experimental: The abdomen of anaesthetised rabbit is cut open to display the tranverse colon. A small balloon full of water is inserted at an established point and connected to a pressure transducer by means of a polyethylene cannula filled with H2 O.
The optimum sensitivity being fixed in relation to the physiological contractions, the products were administered through the femeral vein. Contractions were induced by the administration of 100 ng/kg of CCK.

[2] = tested on: pancreatitis in rats induced experimentally by taurocholate; assay: Pancreatitis induced by sodium taurocolate in rats; assay type: in vivo; conditions: for ED50: Rattus norvegicus, ip, taurocholate, rats
Experimental: The products under examination were administered intraperitoneally (i.p.) 30 minutes before the operation and 3 hours after the operation. Six hours after the laparatomy the blood was removed from the retro-orbitory plexus after anaesthesia with ether, the animals were killed and the pancreas was removed and weighed. The activity of the serum amylase was determined by the method described above.

## CCCCCN(CCOC)C(=O)C(CCC(=O)O)NC(=O)c1ccc(Cl)c(Cl)c1 (stereo not shown) [Compound 5]
Guinea pig gall bladders
  ED50: 0.68 mg/kg
In vivo
  LD50: 485 mg/kg
  selectivity ratio: 713
Digestive tract
  ED50: 20.8 mg/kg
guinea-pig gallbladder
  IC50: 0.8 µg/mL (≈ 1.79 µM)

## CCCCCN(CCCOCC)C(=O)C(CCC(=O)O)NC(=O)c1ccc(Cl)c(Cl)c1 (stereo not shown) [Compound 3]
Guinea pig gall bladders
  ED50: 0.75 mg/kg
In vivo
  LD50: 298 mg/kg
  selectivity ratio: 397
Digestive tract
  ED50: 25 mg/kg
guinea-pig gallbladder
  IC50: 0.6 µg/mL (≈ 1.26 µM)

## COCCCN(CCC(C)C)C(=O)C(CCC(=O)O)NC(=O)c1ccc(Cl)c(Cl)c1 (stereo not shown) [Compound 19]
Guinea pig gall bladders
  ED50: 0.74 mg/kg
In vivo
  LD50: 297 mg/kg
  selectivity ratio: 401
Digestive tract
  ED50: 18.5 mg/kg
guinea-pig gallbladder
  IC50: 0.6 µg/mL (≈ 1.3 µM)

## CCCCCN(CCCOC)C(=O)C(CCC(=O)O)NC(=O)c1ccc(Cl)cc1 (stereo not shown) [Compound 11]
Guinea pig gall bladders
  ED50: 3.25 mg/kg
guinea-pig gallbladder
  IC50: 2.6 µg/mL (≈ 6.09 µM)

## CCCCCN(CCOCC)C(=O)C(CCC(=O)O)NC(=O)c1ccc(C)c(C)c1 (stereo not shown) [Compound 8]
Guinea pig gall bladders
  ED50: 2.02 mg/kg
guinea-pig gallbladder
  IC50: 1.1 µg/mL (≈ 2.62 µM)

## COCCCN(CCCC(C)C)C(=O)C(CCC(=O)O)NC(=O)c1ccc(Cl)c(Cl)c1 (stereo not shown) [Compound 15]
Guinea pig gall bladders
  ED50: 0.84 mg/kg
In vivo
  LD50: 288 mg/kg
  selectivity ratio: 343
Digestive tract
  ED50: 44.2 mg/kg
guinea-pig gallbladder
  IC50: 0.7 µg/mL (≈ 1.47 µM)

## CCCN(CCC)C(=O)C(CCC(=O)O)NC(=O)c1ccccc1 (stereo not shown) [Proglumide, reference compound]
Guinea pig gall bladders
  ED50: 70.5 mg/kg
[1]; 200 mg/kg ip + cerulein
  AMYLASE IN THE SERUM: 48.2 U/ml
  INHIBITION OF WEIGHT INCREASE: 53.4%
  INHIBITION OF WEIGHT INCREASE (pancreas): 38.1%
  RATIO WEIGHT OF PANCREAS / ANIMAL WEIGHT: 0.47%
[1]; 400 mg/kg ip + cerulein
  AMYLASE IN THE SERUM: 26.2 U/ml
  INHIBITION OF WEIGHT INCREASE: 80.9%
  INHIBITION OF WEIGHT INCREASE (pancreas): 85.7%
  RATIO WEIGHT OF PANCREAS / ANIMAL WEIGHT: 0.37%
[1]; read-out: ED50 (inhibition of weight increase)
  ED50: 226 mg/kg
[1]; read-out: ED50, inhibition of weight increase of the pancreas
  ED50: 241 mg/kg
[1]; in words
  activity of proglumide in cerulein pancreatitis: also active but at considerably higher doses
In vivo
  LD50: 2400 mg/kg
  selectivity ratio: 34
guinea-pig gallbladder
  IC50: 340 µg/mL (≈ 1020 µM)
guinea-pig gallbladder; in vitro gallbladder
  activity less than that of the most active compound in the invention: about 3000 times less
Colon of rabbits; 25 mg/kg i.v.
  Antispastic activity in colon, EXPERIMENT 1: -33.7
  Antispastic activity in colon, EXPERIMENT 2: 0
Colon of rabbits; 50 mg/kg i.v.
  Antispastic activity in colon, EXPERIMENT 1: -38.1
  Antispastic activity in colon, EXPERIMENT 2: -16.1
Colon of rabbits; 100 mg/kg i.v.
  Antispastic activity in colon, EXPERIMENT 1: -64.4
  Antispastic activity in colon, EXPERIMENT 2: -43.1
Colon of rabbits; Oryctolagus cuniculus, iv
  ED50: 92.6 mg/kg
[2]; 200 mg/kg i.p. + taurocholate
  AMYLASE IN THE SERUM: 14.5 U/ml
  INHIBITION OF AMYLASE INCREASE: 45.5%
  INHIBITION OF WEIGHT INCREASE: 21.4%
  RATIO WEIGHT OF PANCREAS / ANIMAL WEIGHT: 0.49%
[2]; 400 mg/kg i.p. + taurocholate
  AMYLASE IN THE SERUM: 9.1 U/ml
  INHIBITION OF AMYLASE INCREASE: 89.4%
  INHIBITION OF WEIGHT INCREASE: 42.8%
  RATIO WEIGHT OF PANCREAS / ANIMAL WEIGHT: 0.46%
[2]; read-out: ED50, inhibition of amylase increase
  ED50: 222 mg/kg
[2]; read-out: ED50, inhibition of weight increase
  ED50: 467 mg/kg

## CCCCCN(CCCOC)C(=O)C(CCC(=O)O)NC(=O)c1cccc(C)c1 (stereo not shown) [Compound 10]
Guinea pig gall bladders
  ED50: 3.66 mg/kg
guinea-pig gallbladder
  IC50: 4.1 µg/mL (≈ 10.1 µM)

## CCCCCN(CCCOC)C(=O)C(CCC(=O)O)NC(=O)c1ccc(F)c(F)c1 (stereo not shown) [Compound 14]
Guinea pig gall bladders
  ED50: 1.1 mg/kg
In vivo
  LD50: 425 mg/kg
  selectivity ratio: 386
guinea-pig gallbladder
  IC50: 0.8 µg/mL (≈ 1.87 µM)

## CCCCN(CCCOC)C(=O)C(CCC(=O)O)NC(=O)c1ccc(Cl)c(Cl)c1 (stereo not shown) [Compound 16]
Guinea pig gall bladders
  ED50: 2.08 mg/kg
guinea-pig gallbladder
  IC50: 1.5 µg/mL (≈ 3.35 µM)

## CCCCCN(CCOCC)C(=O)C(CCC(=O)O)NC(=O)c1ccc(Cl)cc1 (stereo not shown) [Compound 12]
Guinea pig gall bladders
  ED50: 4.44 mg/kg
guinea-pig gallbladder
  IC50: 2.9 µg/mL (≈ 6.79 µM)
